One data set deals with sarcoma 45. The settings on record: rat, in vivo.
Data set [1] concerns white raceless male and female rats. The experiment in a line: Whole body gamma irradiation of rats at 11.4 Gy, comparison with mexamine. The following applies: radiation dose 11.4 Gy, agent 24 h before irradiation. The format is in vivo. On the procedure:
In order to compare the radiation protection according to the invention with the effect of conventional radiation protective agents white raceless male and female rats weighing from 150 to 180 g (age: 3 months) was subjected to whole body gamma irradiation at a dose of 11.4 Gy, the animals being protected according to the invention by administering the vitamin combination at the above-mentioned dose 24 hours before the irradiation (group I). […] A third group of rats was irradiation without administering a radiation protective agent (group III).

The subject of data set [2] is stomach cancer at stage IV. Details: concentration or dose not given beside the values. The following applies: only 5-Fu, control group from older literature; cited from earlier work.

On to tocopherol [vitamin E], for which the “distribution of vitamin E (tocopherol contents in organs)” value in the data set on sarcoma 45 is on record as “accumulation of this vitamin in the tumour”.

As to `COc1ccc2[nH]cc(CCN)c2c1` [mexamine], in data set [1], the “average life-span” value is given as 8.2 ± 4 days, the “days at which 50% of animals are dead” value is on record as 50/8 days and the “days at which 100% of animals are dead” value is given as 100/13 days.

For the compound `O=c1[nH]cc(F)c(=O)[nH]1` [5-Fu, 5-Fluorouracil], in data set [2], the “survival rate (%) after 3 months” value is given as 86.7%, the “survival rate (%) after 6 months” value is recorded as 66.7%, the “survival rate (%) after 9 months” value is reported as 40.0% and the “survival rate (%) after 12 months” value is listed as 20.0%. Besides, in data set [2], the “survival rate (%) after 18 months” value was 13.7% and the “survival rate (%) after 22 months” value is listed as 0%.

Source of the values: patent publication US20050176811A1, “Vitamin combination for providing protection during the chemotherapy and/or radio-therapy of malignant tumours” (priority 2002, published 2005).
